Here are results for 1 molecule from BindingDB's records for doi:10.1021/jm020164l (University of Montreal, 2002).

In this test the target is Delta-type opioid receptor (Homo sapiens, UniProt P41143). As to the kind of experiment: In vitro binding affinity against cloned human Opioid receptor delta 1 expressed in HEK 293S cells.

pIC50: −log10 of the molar value.

Chain of Delta-type opioid receptor (P41143 whole entry): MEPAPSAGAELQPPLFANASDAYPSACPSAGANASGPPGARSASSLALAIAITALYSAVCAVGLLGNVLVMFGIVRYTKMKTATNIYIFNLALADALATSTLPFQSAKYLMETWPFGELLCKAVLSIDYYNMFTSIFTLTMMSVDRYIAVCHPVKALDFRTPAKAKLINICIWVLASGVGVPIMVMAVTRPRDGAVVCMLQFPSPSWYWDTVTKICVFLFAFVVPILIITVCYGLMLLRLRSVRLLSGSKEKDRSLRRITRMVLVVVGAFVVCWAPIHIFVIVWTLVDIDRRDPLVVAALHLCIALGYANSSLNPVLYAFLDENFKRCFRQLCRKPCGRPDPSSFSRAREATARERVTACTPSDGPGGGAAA

Consider `C[C@H]1C2C3=CC=CCC3[C@@H](Cc3ccccc32)N1C` (stereo partly drawn) [16,17-dimethyl-(16S)-17-azatetracyclo[7.6.2.02,7.010,15]heptadeca-2(7),3,5,12,14-pentaene], for which the pIC50 was below 5.00.
